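How tested: cells in 96-well plates exposed to compound for 48 hours at five concentrations. Here, GI50 denotes the concentration required for 50% inhibition of growth. TGI is the concentration that stops growth completely.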
Legend:
Assay in all cases: NCI-60 cell line screen, 48 h
786-0 renal = system: 786-0 renal
A498 renal = system: A498 renal
A549 NSCLC = system: A549 NSCLC
ACHN renal = system: ACHN renal
BT-549 breast = system: BT-549 breast
CAKI-1 renal = system: CAKI-1 renal
CCRF-CEM leukemia = system: CCRF-CEM leukemia
COLO 205 colon = system: COLO 205 colon
DU-145 prostate = system: DU-145 prostate
EKVX NSCLC = system: EKVX NSCLC
HCC-2998 colon = system: HCC-2998 colon
HCT-116 colon = system: HCT-116 colon
HCT-15 colon = system: HCT-15 colon
HL-60(TB) leukemia = system: HL-60(TB) leukemia
HOP-62 NSCLC = system: HOP-62 NSCLC
HOP-92 NSCLC = system: HOP-92 NSCLC
HS 578T breast = system: HS 578T breast
HT29 colon = system: HT29 colon
IGROV1 ovarian = system: IGROV1 ovarian
K-562 leukemia = system: K-562 leukemia
KM12 colon = system: KM12 colon
LOX IMVI melanoma = system: LOX IMVI melanoma
MALME-3M melanoma = system: MALME-3M melanoma
MCF7 breast = system: MCF7 breast
MOLT-4 leukemia = system: MOLT-4 leukemia
NCI-H226 lung = system: NCI-H226 lung
NCI-H460 lung = system: NCI-H460 lung

In the case of `COc1cc(C2=NNC(c3ccc(N(C)C)cc3)C2)cc(OC)c1OC` (centres undefined), the GI50 (786-0 renal) is reported as 1.93 µM, the TGI (786-0 renal) is reported as over 100 µM and the GI50 (A498 renal) is reported as 2.87 µM. The TGI (A498 renal) was 8.84 µM, the GI50 (A549 NSCLC) was 3.94 µM and the TGI (A549 NSCLC) was over 100 µM. For the same molecule, the GI50 (ACHN renal) was 11.3 µM, the TGI (ACHN renal) was over 100 µM and the GI50 (BT-549 breast) was 0.811 µM. It also gave a TGI (BT-549 breast) of 10.3 µM, a GI50 (CAKI-1 renal) of 2.68 µM and a TGI (CAKI-1 renal) of over 100 µM. It also gave a GI50 (CCRF-CEM leukemia) of 1.62 µM, a TGI (CCRF-CEM leukemia) of 6.22 µM and a GI50 (COLO 205 colon) of 2.39 µM. The TGI (COLO 205 colon) was 12.5 µM, the GI50 (DU-145 prostate) was 1.88 µM and the TGI (DU-145 prostate) was 5.41 µM. For the same molecule, the GI50 (EKVX NSCLC) was 2.02 µM, the TGI (EKVX NSCLC) was 6.02 µM and the GI50 (HCC-2998 colon) was 1.4 µM. For the same molecule, the TGI (HCC-2998 colon) was 4.6 µM, the GI50 (HCT-116 colon) was 2.03 µM and the TGI (HCT-116 colon) was 19.7 µM. For the same molecule, the GI50 (HCT-15 colon) was 2.48 µM, the TGI (HCT-15 colon) was over 100 µM and the GI50 (HL-60(TB) leukemia) was 1.62 µM. For the same molecule, the TGI (HL-60(TB) leukemia) was 4.96 µM, the GI50 (HOP-62 NSCLC) was 1.13 µM and the TGI (HOP-62 NSCLC) was over 100 µM. It also gave a GI50 (HOP-92 NSCLC) of 3.77 µM, a TGI (HOP-92 NSCLC) of over 100 µM and a GI50 (HS 578T breast) of 2.24 µM. It also gave a TGI (HS 578T breast) of 5.96 µM, a GI50 (HT29 colon) of 0.667 µM and a TGI (HT29 colon) of over 100 µM. For the same molecule, the GI50 (IGROV1 ovarian) was 0.546 µM, the TGI (IGROV1 ovarian) was 3.06 µM and the GI50 (K-562 leukemia) was 0.406 µM. The TGI (K-562 leukemia) was 74.5 µM, the GI50 (KM12 colon) was 0.525 µM and the TGI (KM12 colon) was 12.4 µM. The GI50 (LOX IMVI melanoma) was 7.18 µM, the TGI (LOX IMVI melanoma) was over 100 µM and the GI50 (MALME-3M melanoma) was 7.85 µM. It also gave a TGI (MALME-3M melanoma) of over 100 µM, a GI50 (MCF7 breast) of 0.433 µM and a TGI (MCF7 breast) of over 100 µM. The GI50 (MOLT-4 leukemia) was 2.81 µM, the TGI (MOLT-4 leukemia) was 11.4 µM and the GI50 (NCI-H226 lung) was 54.7 µM. It also gave a TGI (NCI-H226 lung) of over 100 µM, a GI50 (NCI-H460 lung) of 1.14 µM and a TGI (NCI-H460 lung) of 6.83 µM.
